Drawing on US8895568B2, “Compositions comprising substituted pteridines as agrochemicals” (Dow AgroSciences LLC, priority 2009, dated 2014), this text covers pest or weed control for 30 compounds.

Where two headings read alike, the source gives them in different places.

What all share (format): in vivo
In one assay the test system is Colletotricum lagenarium. Kind of assay: Cucumber Anthracnose (COLLLA), foliar spray, percent disease control. As for the experimental part:
The activity of the compounds as effective fungicides was determined by applying the compounds to plants and observing control of fungal disease. The compounds were formulated at 200 ppm in 10 vol. % acetone plus 90 vol. % Triton X water (deionized water 99.99 wt %+0.01 wt % Triton X100), giving a “formulated test compound.” In a few cases, compounds were formulated at 75 or 8.3 ppm rather than 200 ppm in 10 vol. % acetone plus 90 vol. % Triton X water (deionized water 99.99 wt. %+0.01 wt. % Triton X100), giving a “formulated test compound.” Formulated test compounds were applied to plants using a turn table sprayer fitted with two opposing air atomization nozzles which delivered approximately 1500 L/ha of spray volume. All plants were inoculated with spores of the fungus the day after treatment, then incubated in an environment conducive to disease development. Disease severity was evaluated 4 to 15 days later, depending on the disease and the speed of disease development. The following experiments were performed in the laboratory to determine the fungicidal efficacy of the compounds of the invention. Cucumber Anthracnose (causal agent Colletotricum lagenarium; Bayer code COLLLA): Cucumber plants (variety Bush Champion) were grown from seed in a soil-less peat-based potting mixture (Metromix) until the first true leaf was 20-80% expanded. Each pot contained 1 seedling. These plants were sprayed until wet with the formulated test compound. On the following day, the leaves were inoculated with an aqueous spore suspension of Colletotricum lagenarium and the plants were kept in high humidity for one day to permit spores to germinate and infect the leaf. The plants were then transferred to a growth chamber until disease developed on untreated control plants. […] The effectiveness of the test compounds at controlling disease when sprayed on leaves was determined by assessing the severity of disease on treated plants, then converting the severity to percent control based on the level of disease on untreated, inoculated plants. Data are the level (in percent) at which the given disease was controlled when the given compound was applied to the foliage of the plants at 200 ppm. In a few cases (noted in the table) the compound was applied to the plants at 75 ppm or 8.3 ppm.

The next assay has as its system Cochliobolus sativus. Kind of assay: Spot Blotch of Wheat (COCHSA), foliar spray, percent disease control. The following applies: Bipolaris sorokiniana, read-out: COCHSA percent control.
Assay [1] deals with Pseudoperonospora cubensis. Kind of assay: Cucumber Downy Mildew (PSPECU), foliar spray, percent disease control. The following applies: read-out: PSPECU percent control. As for the experimental part:
The activity of the compounds as effective fungicides was determined by applying the compounds to plants and observing control of fungal disease. The compounds were formulated at 200 ppm in 10 vol. % acetone plus 90 vol. % Triton X water (deionized water 99.99 wt %+0.01 wt % Triton X100), giving a “formulated test compound.” In a few cases, compounds were formulated at 75 or 8.3 ppm rather than 200 ppm in 10 vol. % acetone plus 90 vol. % Triton X water (deionized water 99.99 wt. %+0.01 wt. % Triton X100), giving a “formulated test compound.” Formulated test compounds were applied to plants using a turn table sprayer fitted with two opposing air atomization nozzles which delivered approximately 1500 L/ha of spray volume. All plants were inoculated with spores of the fungus the day after treatment, then incubated in an environment conducive to disease development. Disease severity was evaluated 4 to 15 days later, depending on the disease and the speed of disease development. The following experiments were performed in the laboratory to determine the fungicidal efficacy of the compounds of the invention. Cucumber Downy Mildew (causal agent Pseudoperonospora cubensis; Bayer code […]): Cucumber plants (variety Bush Champion) were grown from seed in a soil-less peat-based potting mixture (Metromix) until the first true leaf was 20-80% expanded. Each pot contained 1 seedling. These plants were sprayed until wet with the formulated test compound. On the following day, the leaves were inoculated with an aqueous suspension of downy mildew sporangia and the plants were kept in high humidity for one day to permit sporangia to germinate and infect the leaf. The plants were then incubated in a growth chamber until disease developed on untreated control plants. […] The effectiveness of the test compounds at controlling disease when sprayed on leaves was determined by assessing the severity of disease on treated plants, then converting the severity to percent control based on the level of disease on untreated, inoculated plants. Data are the level (in percent) at which the given disease was controlled when the given compound was applied to the foliage of the plants at 200 ppm. In a few cases (noted in the table) the compound was applied to the plants at 75 ppm or 8.3 ppm.

On to `CC(Nc1ncnc2nccnc12)c1ccccc1` (stereo not drawn) [Compound 9], for which the pest or weed control at 200 µg/mL in the assay on Colletotricum lagenarium (foliar) was in the range of 0 to 49%; in the assay with Cochliobolus sativus (foliar), 0 to 49%; in assay [1] (foliar) it was 80 to 100%.
As for `COc1cc(C)c(CCNc2ncnc3nccnc23)cc1C` [Compound 151], the pest or weed control at 200 µg/mL lay within 0 to 49% in the assay on Colletotricum lagenarium (foliar), 0 to 49% in the assay on Cochliobolus sativus (foliar) and 80 to 100% in assay [1] (foliar).
With `N#Cc1nccnc1Oc1ccc(CCNc2ncnc3nccnc23)cc1` [Compound 18], the pest or weed control at 200 µg/mL fell in the range of 0 to 49% in the assay with Colletotricum lagenarium (foliar), 0 to 49% with Cochliobolus sativus (foliar) and 80 to 100% in assay [1] (foliar).
On to `Oc1ccc(CCNc2ncnc3nccnc23)cc1Br` [Compound 211], for which the pest or weed control at 200 µg/mL (in the assay with Colletotricum lagenarium (foliar spray); in the assay on Cochliobolus sativus (foliar spray); in assay [1] (foliar spray)) was 0 to 49% throughout.
Consider `CCOc1cc(CCNc2ncnc3nccnc23)ccc1Oc1cc(C(C)C)ccn1` [Compound 205], for which the figures for the pest or weed control at 200 µg/mL (in the assay on Colletotricum lagenarium (foliar spray); in the assay with Cochliobolus sativus (foliar spray); in assay [1] (foliar spray)) were 0 to 49%, 0 to 49% and 80 to 100%, respectively.
For `COc1cc(CCNc2ncnc3nccnc23)ccc1Oc1cc(C#N)ccn1` [Compound 57], the pest or weed control at 200 µg/mL in the assay on Colletotricum lagenarium (foliar) lay within 0 to 49%; in the assay on Cochliobolus sativus (foliar) it was 0 to 49%; in assay [1] (foliar) it was 80 to 100%.
`N#Cc1c(Cl)cccc1Oc1ccc(CCNc2ncnc3nccnc23)cc1` [Compound 61]: the pest or weed control at 200 µg/mL in the assay on Colletotricum lagenarium (foliar) lay within 0 to 49%; with Cochliobolus sativus (foliar), 0 to 49%; in assay [1] (foliar), 80 to 100%.
Turning to `N#Cc1cc2ccccc2nc1Oc1ccc(CCNc2ncnc3nccnc23)cc1` [Compound 127], the values for the pest or weed control at 200 µg/mL (in the assay on Colletotricum lagenarium (foliar); in the assay with Cochliobolus sativus (foliar); in assay [1] (foliar)) were 0 to 49%, 0 to 49% and 50 to 79%, respectively.
For `Oc1ccc(OCCNc2ncnc3nccnc23)cc1` [Compound 80], the pest or weed control at 200 µg/mL (in the assay with Colletotricum lagenarium (foliar); in the assay with Cochliobolus sativus (foliar); in assay [1] (foliar)) was 0 to 49% throughout.
In the case of `CC(F)(F)c1ccnc(Oc2ccc(CCNc3ncnc4nccnc34)cc2F)c1` [Compound 193], the pest or weed control at 200 µg/mL in the assay on Colletotricum lagenarium (foliar) lay in the range of 0 to 49%; in the assay on Cochliobolus sativus (foliar) it was 0 to 49%; in assay [1] (foliar), 80 to 100%.
Regarding `Cc1cc(Oc2cc(C(F)(F)F)ccn2)ccc1OCCNc1ncnc2nccnc12` [Compound 201], the pest or weed control at 200 µg/mL in the assay on Colletotricum lagenarium (foliar spray) lay within 0 to 49%; in the assay with Cochliobolus sativus (foliar spray), 0 to 49%; in assay [1] (foliar spray), 80 to 100%.
As for `CCOc1cc(CCNc2ncnc3nccnc23)ccc1Oc1cc(C(C)(F)F)ccn1` [Compound 189], the results for the pest or weed control at 200 µg/mL (in the assay with Colletotricum lagenarium (foliar); in the assay with Cochliobolus sativus (foliar); in assay [1] (foliar)) were 50 to 79%, 0 to 49% and 80 to 100%, respectively.
Regarding `N#Cc1c(Cl)cncc1Oc1ccc(CCNc2ncnc3nccnc23)cc1` [Compound 35], the pest or weed control at 200 µg/mL in the assay with Colletotricum lagenarium (foliar) lay in the range of 0 to 49%; in the assay on Cochliobolus sativus (foliar), 0 to 49%; in assay [1] (foliar) it was 80 to 100%.
For `Cc1c(CCNc2ncnc3nccnc23)ccc(Oc2cncc(Cl)c2C#N)c1C` [Compound 147], the pest or weed control at 200 µg/mL in the assay with Colletotricum lagenarium (foliar) was in the range of 0 to 49%; with Cochliobolus sativus (foliar) it was 0 to 49%; in assay [1] (foliar), 80 to 100%.
Consider `N#Cc1c(Cl)cncc1Oc1ccc(CCNc2ncnc3ncc(Cl)nc23)cc1` [Compound 119], for which the pest or weed control at 200 µg/mL (in the assay with Colletotricum lagenarium (foliar); in the assay with Cochliobolus sativus (foliar); in assay [1] (foliar)) was 0 to 49% throughout.
Regarding `COc1ccc(C(C)Nc2nc(C)nc3nccnc23)cc1` (stereo not drawn) [Compound 19, [1-(4-Methoxyphenyl)ethyl]-2-methylpteridin-4-yl-amine], the pest or weed control at 200 µg/mL (in the assay with Colletotricum lagenarium (foliar); in the assay on Cochliobolus sativus (foliar); in assay [1] (foliar)) was 0 to 49% throughout.
`COc1cc(C(F)(F)F)cc(Oc2cc(C)c(CCNc3ncnc4nccnc34)cc2C)n1` [Compound 179]: the pest or weed control at 200 µg/mL (in the assay with Colletotricum lagenarium (foliar); in the assay with Cochliobolus sativus (foliar); in assay [1] (foliar)) was 0 to 49% each time.
With `Oc1cccc(OCCNc2ncnc3nccnc23)c1` [Compound 81], the pest or weed control at 200 µg/mL fell in the range of 0 to 49% in the assay on Colletotricum lagenarium (foliar), 0 to 49% with Cochliobolus sativus (foliar) and 80 to 100% in assay [1] (foliar).
Regarding `CC(C)(C)COC(=O)c1ccnc(Oc2ccc(CCNc3ncnc4nccnc34)cc2)c1` [Compound 182], the pest or weed control at 200 µg/mL was in the range of 0 to 49% in the assay with Colletotricum lagenarium (foliar), 0 to 49% in the assay with Cochliobolus sativus (foliar) and 80 to 100% in assay [1] (foliar).
Take `Cc1c(O)ccc(CCNc2ncnc3nccnc23)c1C` [Compound 175]: the pest or weed control at 200 µg/mL (in the assay on Colletotricum lagenarium (foliar); in the assay on Cochliobolus sativus (foliar); in assay [1] (foliar)) was 0 to 49% each time.
For `COc1cc(CCNc2ncnc3nccnc23)ccc1O` [Compound 37], the pest or weed control at 200 µg/mL (in the assay with Colletotricum lagenarium (foliar); in the assay on Cochliobolus sativus (foliar); in assay [1] (foliar)) was 0 to 49% in each case.
For `FC(F)(F)c1ccc(Oc2cccc(OCCNc3ncnc4nccnc34)c2)nc1` [Compound 87], the pest or weed control at 200 µg/mL in the assay with Colletotricum lagenarium (foliar) was in the range of 0 to 49%; in the assay on Cochliobolus sativus (foliar), 0 to 49%; in assay [1] (foliar), 80 to 100%.
Regarding `CC(C)(C)OC(=O)N(CCc1ccc(O)cc1)c1ncnc2nccnc12` [Compound 217, [2-(4-Hydroxyphenyl)-ethyl]-pteridin-4-yl-carbamic acid tert-butyl Ester], the pest or weed control at 200 µg/mL with Colletotricum lagenarium (foliar spray) fell in the range of 0 to 49%; in the assay with Cochliobolus sativus (foliar spray) it was 50 to 79%; in assay [1] (foliar spray), 50 to 79%.
Turning to `Cc1nc2ncnc(NCCc3ccc(O)cc3)c2nc1C` [Compound 161], the pest or weed control at 200 µg/mL (in the assay with Colletotricum lagenarium (foliar); in the assay with Cochliobolus sativus (foliar); in assay [1] (foliar)) was 0 to 49% throughout.
Regarding `FC(F)(F)c1ccnc(Oc2ccc(OCCNc3ncnc4nccnc34)cc2)c1` [Compound 83], the pest or weed control at 200 µg/mL lay in the range of 80 to 100% in the assay with Colletotricum lagenarium (foliar), 0 to 49% in the assay on Cochliobolus sativus (foliar) and 80 to 100% in assay [1] (foliar).
Turning to `Ic1ccnc(Oc2cccc(CCNc3ncnc4nccnc34)c2)c1` [Compound 74], the pest or weed control at 200 µg/mL is 0 to 49% in the assay with Colletotricum lagenarium (foliar), 0 to 49% in the assay with Cochliobolus sativus (foliar) and 80 to 100% in assay [1] (foliar).
Consider `COc1ccc(CCNc2ncnc3nccnc23)c(F)c1` [Compound 62], for which the results for the pest or weed control at 200 µg/mL (in the assay on Colletotricum lagenarium (foliar); with Cochliobolus sativus (foliar); in assay [1] (foliar)) were 0 to 49%, 0 to 49% and 80 to 100%, respectively.
For `Brc1nsc(Oc2ccc(CCNc3ncnc4nccnc34)cc2)n1` [Compound 33], the pest or weed control at 200 µg/mL (in the assay on Colletotricum lagenarium (foliar); in the assay with Cochliobolus sativus (foliar); in assay [1] (foliar)) was 0 to 49% throughout.
Take `COc1cc(C(C)(F)F)cc(Oc2ccc(CCNc3ncnc4nccnc34)cc2)n1` [Compound 191, (2-{4-[4-(1,1-Difluoroethyl)-6-methoxypyridin-2-yloxy]-phenyl}-ethyl)-pteridin-4-yl-amine]: the results for the pest or weed control at 200 µg/mL (in the assay with Colletotricum lagenarium (foliar); in the assay with Cochliobolus sativus (foliar); in assay [1] (foliar)) were 50 to 79%, 0 to 49% and 80 to 100%, respectively.
For the compound `COc1cc(C(F)(F)F)cc(Oc2ccc(CCNc3ncnc4nccnc34)cc2F)n1` [Compound 185], the pest or weed control at 200 µg/mL with Colletotricum lagenarium (foliar) was 0 to 49%; in the assay with Cochliobolus sativus (foliar), 0 to 49%; in assay [1] (foliar), 80 to 100%.
